Results: ChEMBL document CHEMBL1151176, “Isolation of nor-secofriedelanes from the sedative extracts of Galphimia glauca” (2004)

Experiments:
Format in all cases: functional
Conditions in all cases: read-out: ED50 (the source's name)
[1] = Cytotoxicity against human SQC1 cells
OVCAR = assay: Cytotoxicity against human OVCAR cells
HCT-15 = assay: Cytotoxicity against human HCT15 cells
KB = assay: Cytotoxicity against human KB cells

Measured: EC50

COC(=O)[C@@]12CC[C@@]3(C)[C@@H]4C=CC(=O)OC[C@]4([C@@H](C)O)[C@@H](O)[C@@H](O)[C@@H]3[C@@]1(C)CC[C@@]1(C)CC=C(C)C[C@]12O [GALPHIMINE A]
> 4 µg/mL: all assays above

COC(=O)[C@@]12CC[C@@]3(C)[C@@H]4C=CC(=O)OC[C@]4([C@@H](C)O)C[C@@H](O)[C@@H]3[C@@]1(C)CC[C@@]1(C)CC=C(C)C[C@]12O [GALPHIMINE B]
> 4 µg/mL: all assays above

COC(=O)[C@@]12CC[C@@]3(C)[C@@H]4C=CC(=O)OC[C@]4([C@@H](C)O)C[C@@H](O)[C@@H]3[C@@]1(C)CC[C@@]1(C)CCC(C)=C[C@]12O [GALPHIMINE C]
> 4 µg/mL: all assays above

COC(=O)[C@@]12CC[C@@]3(C)[C@@H]4C=CC(=O)OC[C@]4([C@H](C)O)[C@@H](O)[C@@H](OC(C)=O)[C@@H]3[C@@]1(C)CC[C@@]1(C)CC=C(C)C[C@]12O [GALPHIMINE D]
> 4 µg/mL: all assays above

COC(=O)[C@@]12CC[C@@]3(C)[C@@H]4C=CC(=O)OC[C@]4([C@@H](C)O)[C@@H](OC(C)=O)[C@@H](O)[C@@H]3[C@@]1(C)CC[C@@]1(C)CC=C(C)C[C@]12O [GALPHIMINE E]
> 4 µg/mL: all assays above

C=C1CC[C@]2(C)CC[C@]3(C)[C@H]4[C@H](O)C[C@@]5([C@@H](C)O)COC(=O)C=C[C@H]5[C@]4(C)CC[C@@]3(C(=O)OC)[C@]2(O)C1 [GALPHIMINE F]
> 4 µg/mL: all assays above

C=C1CC[C@]2(C)CC[C@]3(C)[C@H]4[C@H](O)[C@H](OC(C)=O)[C@@]5([C@@H](C)O)COC(=O)C=C[C@H]5[C@]4(C)CC[C@@]3(C(=O)OC)[C@]2(O)C1 [GALPHIMINE G]
> 4 µg/mL: all assays above

C=C1CC[C@]2(C)CC[C@]3(C)[C@H]4[C@H](O)[C@H](O)[C@@]5([C@H](C)O)COC(=O)C=C[C@H]5[C@]4(C)CC[C@@]3(C(=O)OC)[C@]2(O)C1 [GALPHIMINE H]
> 4 µg/mL: all assays above

C=C1CC[C@]2(C)CC[C@]3(C)[C@H]4[C@H](OC(C)=O)[C@H](O)[C@@]5([C@H](C)O)COC(=O)C=C[C@H]5[C@]4(C)CC[C@@]3(C(=O)OC)[C@]2(O)C1 [GALPHIMINE I]
> 4 µg/mL: all assays above
